{"source": "patent US20040005342A1", "about": "“Topical administration of ascorbic acid to reinforce the cohesion of the dermo-epidermal junction” (SOCIETE L'OREAL S.A., priority 2002, published 2004)", "type_in_all_cases": "cell-based, human", "key": {"tenascin": {"system": "tenascin", "experiment": "Immunofluorescence of tenascin in reconstructed skin sections"}, "collagen VII": {"system": "collagen VII", "experiment": "Immunofluorescence of collagen VII in reconstructed skin sections"}, "[1]": {"system": "fibroblasts in the lattice of reconstructed skin", "experiment": "Reconstructed skin grown with vitamin C in the culture medium: number of fibroblasts", "conditions": "vitamin C in culture medium throughout the phase of emersion", "from_the_text": "This increase is associated with a greater production of certain proteins of the extracellular matrix, in particular in the sub-epidermal zone. The most spectacular results are found in this region of the dermo-epidermal junction, with a more perpendicular arrangement of the basal keratinocytes and an increased synthesis of major components of the basal membrane, for instance tenascin and collagen VII."}, "[2]": {"conditions": "reconstructed skin, vitamin CPMg 2.8′10^−4 M, 7-day emersion phase, × control"}}, "data": [{"compound": "O=C1O[C@H]([C@@H](O)CO)C([O-])=C1OP(=O)([O-])[O-].O=C1O[C@H]([C@@H](O)CO)C([O-])=C1OP(=O)([O-])[O-].[Mg+2].[Mg+2].[Mg+2]", "note": "[Vitamin C, magnesium ascorbyl phosphate]", "values": [{"measurement": "Intensity and thickness of the zone of tenascin fluorescence (dermo-epidermal junction and superficial dermis), versus sample without vitamin C", "setting": "tenascin; microscopic observation, FIG. 2", "value": "much larger"}, {"measurement": "Tenascin fluorescence intensity/unit of length", "setting": "tenascin; reconstructed skin, vitamin CPMg 2.8′10^−4 M during 7-day emersion phase, image analysis, standardized to identical length of dermo-epidermal junction, control 6.4", "value": 11.54, "unit": "arbitrary units"}, {"measurement": "Tenascin fluorescence intensity/unit of length, factor versus control", "setting": "tenascin; [2]", "value": 1.80}, {"measurement": "Intensity and thickness of the zone of collagen VII fluorescence at the dermo-epidermal junction, versus sample without vitamin C", "setting": "collagen VII; microscopic observation, FIG. 1", "value": "much greater"}, {"measurement": "Collagen VII fluorescence intensity/unit of length", "setting": "collagen VII; reconstructed skin, vitamin CPMg 2.8′10^−4 M during 7-day emersion phase, image analysis, normalized to identical length of dermo-epidermal junction, control 1.35", "value": 2.50, "unit": "arbitrary units"}, {"measurement": "Collagen VII fluorescence intensity/unit of length, factor versus control", "setting": "collagen VII; [2]", "value": 1.85}, {"measurement": "Number of fibroblasts in the lattice", "setting": "[1]", "value": "very large increase"}]}]}
